# From patent US20160082133A1, “CHEMICAL EXCHANGE SATURATION TRANSFER (CEST) BASED MRI USING REPORTER GENES AND SUBSTRATES AND METHODS THEREOF” (The Johns Hopkins University, priority 2013, published 2016)
# “Also recorded” adds a separate entry of the source.
# Legend:
# [1] = test system: 9L^wt and 9L^HSV1-tk tumors; experiment: Terminal transferase nick-end-labeling (TUNEL) of brain tumors; type: in vivo, mice; details: 150 mg/kg, 6 hours post i.v. injection
# Description: ApopTag® Plus In Situ Apoptosis Fluorescein Detection Kit (Millipore) was used for detecting degraded DNA fragments to evaluate apoptosis after the administration of compound 2. Six hours after i.v. administration of 2 (150 mg/kg body weight) mice were transcardially perfused with 10 mM PBS and 4% PFA for tissue fixation. Brains were fixed in 4% PFA overnight, cryopreserved in 30% sucrose, and followed by cryo-sectioning at 30 μm slices. Slices were post-fixed in ethanol: acetic acid (2:1) solution followed by the manufacture procedure for using the ApopTag® Plus In Situ Apoptosis Fluorescein Detection Kit (Millipore, […]).
# [2] = test system: 9L^HSV1-tk cells; experiment: In vitro detection of accumulation with MR spectroscopy; type: cell-based, rat; details: 9L^HSV1-tk cells incubated 3.5 h
# Description: At least two distinctive peaks, typical to 2, appear in the spectra of the pure compound (black), a singlet at 1.22 ppm (6H of the 2 Methyls) and a triplet at 6.29 ppm (1H, the proton on 1′ carbon of the sugar). Both peaks appear in the lysate of cells incubated with the compound (red spectra) but not in the control (blue spectra). The samples were prepared using dual-phase extraction for simultaneous extraction of cellular lipids and water-soluble metabolite. Twenty five million cells (9L^HSV1-tk) were incubated with or without 2 for 3.5 h. After dual-phase extraction and lyophilizing of the water from the water-soluble fraction, the soluble intracellular contents were dissolved in D2O for the ^1H-NMR experiments. Fully relaxed ^1H-NMR spectra of the extracts were acquired on a Bruker 500 MHz scanner. The signal integrals of the typical functional groups of 2 (methyl groups —(CH3)2 at 1.22 ppm and of the CH on the C-1′ position of the sugar moiety at 6.29 ppm) and of the standard TSP (0 ppm) were determined. Then, the mM intracellular concentration of 2 was calculated as shown previously (Glunde, K. et al., Cancer Res 2005, 65, 11034) and found to be 0.37 mM.
# [3] = test system: HSV1-TK; type: in vivo, mice; details: 3 h after iv injection, 150 mg/kg, 5 ppm, n=8
# Text: (§1) At the last time point of the experiment the full CEST-spectrum was acquired for each animal with the same parameters described in the Experimental Section (main text) except the followings: CEST-weighted images were acquired with a modified RARE pulse sequence (TR/TE=6000/35 ms), using a 213 Hz/4000 ms saturation pulse from −6 to +6 ppm around the water resonance, which was assigned to be at 0 ppm. Pixel-based B0 correction was used as described before (Kim, M. et al. Magn Reson Med 2009, 61, 1441) using the same parameters as above except for TR=1500 ms, B1/tsat=21 Hz/500 ms, with a sweep range from −1 to +1 ppm (0.1 ppm steps). Mean CEST spectra were plotted from an ROI for each tumor and normal brain tissue, after B0 correction. MTRasym=100×(S^−Δω−S^Δω)/S0 was computed at different offsets Δω.
# (§2) pcDNA3.1-HSV1-tk was used to transfect 9L rat glioma cells. A single clone was selected with 0.5 mg/mL G418 antibiotics. 9L^HSV1-tk and nontransfected wild type 9L cells (9L^wt) were inoculated (2×10^5 cells/2 μL saline) bilaterally into the striatum of adult NOD-SCID male mice to generate intracranial 9L tumors in both hemispheres.
# (§3) Data were acquired using a horizontal 11.7 T MRI scanner (Bruker, Biospec) equipped with a circular polarized MRI transceiver coil (i.d.=23 mm) Seven days after cell transplantation, mice were anesthetized with 1.5% isoflurane, and a series of […] CEST data sets were obtained at 1, 2, and 3 h following intravenous (iv) injection of 2 in saline (150 mg/kg body). CEST weighted images were acquired with a modified RARE pulse sequence (TR/TE=6000/35 ms), using a 213 Hz/4000 ms saturation pulse alternating between ±5 ppm frequency offsets from the water frequency. For each time point, the MTRasym map was calculated from four pairs of s−5 ppm/s+5 ppm using MATLAB (Mathworks). A single 1 mm slice with FOV of 1.6×1.6 cm^2 and a 128×48 matrix was used.
# [4] = molecular target: T1, HSV1-TK (Human herpesvirus 1, UniProt P0DTH5); type: in vivo, mice
# T1 construct: V5; expressed in transfected cells; host or cells: 9L rat glioma cells transfected with pcDNA3.1-HSV1-tk, single G418-selected clone, implanted in NOD-SCID mouse brain
# T1 sequence (P0DTH5 whole entry): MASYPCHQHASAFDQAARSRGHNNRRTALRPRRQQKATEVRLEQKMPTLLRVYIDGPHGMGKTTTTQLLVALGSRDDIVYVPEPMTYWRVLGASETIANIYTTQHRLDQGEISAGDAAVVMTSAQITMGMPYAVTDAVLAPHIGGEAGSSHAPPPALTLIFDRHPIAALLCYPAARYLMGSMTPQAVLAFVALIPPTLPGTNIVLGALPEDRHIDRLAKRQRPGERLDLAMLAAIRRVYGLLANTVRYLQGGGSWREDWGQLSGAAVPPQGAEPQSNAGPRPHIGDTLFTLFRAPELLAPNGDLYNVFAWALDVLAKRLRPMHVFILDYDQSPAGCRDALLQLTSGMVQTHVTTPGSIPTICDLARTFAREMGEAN
# Text: as §1, §2, §3
# [5] = Quantification of exchange rates (QUESP, Bloch equation fitting); type: physicochemical; details: 11.7 T, pH 7.4, 37° C.
# Description: Exchange rates were quantified with the saturation power dependent CEST approach (QUESP) and Bloch equation fitting (McMahon et al., Magn. Res. Med. 2006, 55, 836). For each sample, the MTRasym was measured at the imino resonance frequency for CEST saturation fields of 43, 85, 128, 170, 213, 255, 340, and 426 Hz while the saturation pulse duration was kept constant at 4000 ms. The Bloch equations were then fit numerically to these MTRasym values using MATLAB (Mathworks), and the exchange rates (kex, s^−1) were determined from the fits. Errors (95% confidence limits) were estimated using the F statistic.
# [6] = test system: HSV1-TK over m-TK; experiment: Kinase assay with HEK-293FT cell extracts (293^HSV1-tk vs 293^wt); type: biochemical; details: 5 μM substrate, 2 μL cell extract; specificity HSV1-TK over m-TK
# Description: In a solid white 96-well plate, 5 μM substrate (dT, compounds 1, 2, or 3; N=4 for each substrate) and 20 μM ATP were dissolved in 48 μL of kinase reaction buffer (40 mM Tris; pH=7.5, 20 mM MgCl2, and 0.1 mg/mL BSA) followed by the addition of 2 μL of purified HSV1-TK to initiate the kinase reaction. Eight wells without substrate were included as the control reference. The plate was incubated at room temperature for 2 h, after which 50 μL of Kinase-Glo luciferase reagent (Kinase-Glo max luminescent kinase assay, Promega Inc.) was added. After […], the resulting luminescence values were recorded and used to quantify the residual ATP in the reaction. The relative phosphorylation (%) was then defined as the luminescence signal obtained after the enzymatic reaction (substrate+HSV1-TK+ATP) relative to the signal obtained from wells without substrate (HSV1-TK+ATP). For a phosphorylation assay performed on HEK-293FT lysates, 2 μL of cell extract (either ^293HSV1-tk or 293^wt cells) was used instead of purified HSV1-TK, and the assay was performed using 1 or 2 as the substrate according to the procedure described above.
compound,measurement,setting,value
"CC1(C)CN([C@H]2C[C@H](O)[C@@H](CO)O2)C(=O)NC1=O [Compound 2, 5-Methyl-5,6-dihydrothymidine]",apoptosis (TUNEL staining),[1],did not induce apoptosis; also recorded: do not induce apoptosis
same,intracellular concentration by 1H-NMR,[2],0.37 mM
same,"normalized mean MTRasym values (ΔMTRasym), 9L^wt tumor",[3],2.0±1.7
same,average difference in ΔMTRasym between the two tumor types (full CEST spectrum),"[4]; 5.0 ppm, last time point, N=8",approximately 0.77%
same,"normalized mean MTRasym values (ΔMTRasym), 9L^HSV1-tk tumor","[4]; 3 h after iv injection, 150 mg/kg, 5 ppm, n=8",4.5±1.5
same,estimated intracellular concentration in 9L^HSV1-tk tumors,"[4]; from calibration curve, in vivo",approximately 0.7 mM
same,kex of the imino proton,[5],1.7±0.3×10^3 s^−1
same,"kex, quantified exchange rates of imino and water protons","[5]; 5 ppm for 1-3, 6 ppm for dT",1.7 ± 0.3 ×10^3 s^−1
same,"increase in phosphorylation with respect to control extract (293^wt), factor relative to that of 1",[6],about 10
